Data: patent US10314777B2, “Delivery of hydrophobic bioactive agents” (priority 2010, dated 2019)

Experiment: Solubility of the retinoate in the carrier GRANSIL GTS
Assay type: physicochemical
Text: In some embodiments, a bioactive agent is a vitamin A derivative such as a retinoid. As an example, some embodiments include hydroxyanasatil retinoate, a form of all-trans retinoate sold by Concert, LLC, Memphis, Tenn., optionally in an amount of 0.1 percent by weight. This material is insoluble at this concentration in the carrier sold under the tradename GRANSIL GTS, which is a mixture of ethyl trisiloxane and polysilicone-11. […] Upon exposure to the environment for application to the skin, the carrier volatilizes allowing the crystalline retinoate to resolubilize in the solvent for increased penetration of the skin.

solubility in carrier GRANSIL GTS (0.1 percent by weight in ethyl trisiloxane and polysilicone-11): insoluble
Compound: COc1ccc(C(=O)COC(=O)\C=C(C)/C=C/C=C(C)/C=C/C2=C(C)CCCC2(C)C)cc1 [hydroxyanasatil retinoate]
state in carrier GRANSIL GTS with non-volatile solvent (0.1 percent by weight, dimethyl isosorbide added at 0.8%): mixed state of solubilized material and crystalline material
